Results reported in patent publication US8647687B2, “Isoamyl acetate for weight management” (Nestec S.A., priority 2008, dated 2014).

Assay: Clinical trial: Wanting, Liking and Intensity ratings of flavored waters after a preload
Assay type: in vivo, human
Conditions: prior consumption of the preload, then rating of isoamyl acetate flavored water; 17 participants
Procedure: Isoamyl acetate was combined with 0.5% w/w sucrose (Fisher Scientific) and dissolved in bottled mineral water (Vittel, Nestlé waters, France). Isoamyl acetate was provided as liquid concentrate supplied by Sigma-Aldrich (Steinheim, Germany). The final concentration of isoamyl acetate was 16 ppm.
A clinical trial with 17 healthy participants was conducted to investigate the neural correlates of flavor reward in terms of “Liking” (or pleasure) and “Wanting” (or appetite). Seventeen participants rated flavored waters in different conditions while their brain electrical activity was monitored using electro-encephalography. Waters were flavored either with isoamyl acetate (described as banana) or ethyl butyrate (described as strawberry). Experimental conditions consisted in the ratings of the 2 flavored waters after a preload (prior consumption of a flavored water) or without a preload.
The behavioral results of this clinical trial are summarized in FIG. 1 showing the mean Wanting (or appetite) and Liking (or pleasure) ratings (from 1, not at all to 9, extremely) obtained for the ETB flavored water in the different Preload conditions from 17 participants. […] IAA: isoamyl acetate; ETB: ethyl butyrate.

In the case of CCCC(=O)OCC [ethyl butyrate], the “appetite for isoamyl acetate flavored water” value is reported as “no impact”.
